According to patent publication US4439448A, “Glutamine derivatives” (Mitsubishi Chemical Industries Ltd., priority 1980, dated 1984):
Structures can show the parent of a compound that is named as a salt.

Experiments:
delayed hypersensitibity = experiment: TEST 3 effects on delayed hypersensitivity (sheep red blood cell paw edema); type: in vivo, mice, ddY strain; settings: four consecutive days
Protocol: Into the palms of the right rear limbs of mice (ddY strain, weighing 25-30 g) was injected 40 μl of sheep red blood cells the concentration of which was adjusted to 1×10^7 /40 μl. The test drug was administered intraperitoneally or orally for four consecutive days inclusive of the day of sheep red blood cell administration. Three days after the day of sheep red blood cell administration, 40 μl of sheep red blood cells which were adjusted to have a concentration of 5×10^8 /40 μl were administered into the palms of the left rear limbs. After 24 hours, the thickness of the palms of the right and left rear limbs was measured. The edema was expressed as the difference in thickness between the palms of the left and right rear limbs. The results are shown in FIG. 3, in which the edema in the medicated group is expressed as percent control which means the percentage of the edema found in the group in which physiological saline is applied (control group).

ddY mice = experiment: TEST 1 acute toxicity in mice; type: in vivo; settings: mouse, in vivo
Excerpt: The test drug was suspended in aqueous 50% solution of Tween 80 and administered to ddY mice weighing 20-25 g orally or intraperitoneally in doses indicated in Table 1 below.

| Compound | % Control (edema, percentage of that in physiological saline control group) (delayed hypersensitibity; 3 mg/kg I.P.) [%] | % Control (edema, percentage of that in physiological saline control group) (delayed hypersensitibity; 10 mg/kg I.P.) [%] | % Control (edema, percentage of that in physiological saline control group) (delayed hypersensitibity; 30 mg/kg I.P.) [%] | % Control (edema, percentage of that in physiological saline control group) (delayed hypersensitibity; 30 mg/kg P.O.) [%] | % Control (edema, percentage of that in physiological saline control group) (delayed hypersensitibity; 100 mg/kg P.O.) [%] | % Control (edema, percentage of that in physiological saline control group) (delayed hypersensitibity; 300 mg/kg P.O.) [%] | No. of dead mice/No. of test animals (ddY mice) |
| --- | --- | --- | --- | --- | --- | --- | --- |
| CCOC(=O)Cc1ccc(NC(=O)CC[C@@H](N)C(=O)O)cc1 [Compound (12), N-(4-Ethoxycarbonylmethylphenyl)-D-glutamine] | 76.1 | 107.9 | 89.1 | 85.4 | 81.7 | 80.7 |  |
| CCOC(=O)C(CC)c1ccc(NC(=O)CC[C@H](N)C(=O)O)cc1 (stereo partly drawn) [Compound (13), N-[4-(1-Ethoxycarbonyl-n-propyl)phenyl]-L-glutamine] | 82.1 | 70.5 | 64.2 | 89.6 | 87.4 | 75.7 | 0/5 |
| CCOC(=O)C(C)(C)c1ccc(NC(=O)CC[C@H](N)C(=O)O)cc1 [Compound (14), N-[4-(1-Ethoxycarbonyl-1-methylethyl)phenyl]-L-glutamine] | 77.3 | 72.6 | 71.9 |  |  |  |  |
| CCOC(=O)C(C)c1ccc(NC(=O)CC[C@H](N)C(=O)O)cc1 (stereo partly drawn) [Compound (15), N-[4-(1-Ethoxycarbonylethyl)phenyl]-L-glutamine] | 78.0 | 62.6 | 67.6 |  |  |  |  |
| CCOC(=O)Cc1ccc(NC(=O)CC[C@H](N)C(=O)O)cc1 [Hydrochloride Compound (2)] | 79.6 | 90.7 | 90.0 | 81.8 | 75.7 | 67.2 |  |
| N-(2-Ethoxycarbonylmethylphenyl)-L-glutamine [Compound (7)] | 92.4 | 91.1 | 86.8 | 92.8 | 84.8 | 82.3 |  |
| N-(3-Ethoxycarbonylmethylphenyl)-L-glutamine [Compound (6)] | 94.6 | 83.2 | 84.3 | 81.1 | 82.8 | 83.1 |  |
| N-(4-ethoxycarbonylmethylphenyl)-L-glutamine hydrochloride [Compound (11)] | 77.7 | 67.3 | 84.1 | 89.8 | 80.8 | 83.7 |  |
| N-(4-n-Butyloxycarbonylmethylphenyl)-L-glutamine [Compound (5)] | 91.6 | 95.7 | 72.2 | 94.5 | 84.7 | 82.2 |  |
| N-(4-n-Propyloxycarbonylmethylphenyl)-L-glutamine [Compound (4)] | 70.4 | 80.2 | 91.7 | 91.7 | 91.9 | 79.6 |  |
| N-[4-(2-Ethoxycarbonylethyl)phenyl]-L-glutamine [Compound (8)] | 76.2 | 76.7 | 81.0 | 85.0 | 80.6 | 92.3 |  |
| N-[4-(2-Ethoxycarbonylvinyl)phenyl]-L-glutamine [Compound (10)] | 100 | 101 | 85.8 | 81.3 | 109.9 | 82.6 |  |
| N-[4-(3-Ethoxycarbonyl-n-propyl)phenyl]-L-glutamine [Compound (9)] | 91.3 | 80.2 | 100.6 | 85.3 | 96.7 | 88.9 |  |
